Test results taken from PubChem BioAssay (NCI).
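How tested: cells in 96-well plates exposed to compound for 48 hours at five concentrations. TGI is the concentration that stops growth completely.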 Where a SMILES comes first, the peptide text is derived from it. [ ]: non-standard residue; d: D form. The star is where a group is joined. ξ: configuration not given here. Propanoyl(3-(4-MeO-Ph)) = COc1ccc(CCC(=O)*)cc1; Thr(3ξ) = CC(O)[C@H](N)C(=O)O; dNMeL = CN[C@H](CC(C)C)C(=O)O; OBn = c1ccc(CO*)cc1; ξLac = CC(O)C(=O)O

Legend:
Assay in all cases: growth of human tumour cells (NCI), 48 h
MCF7 breast = system: MCF7 breast
NCI-H23 lung = system: NCI-H23 lung
SK-MEL-2 melanoma = system: SK-MEL-2 melanoma
SK-MEL-5 melanoma = system: SK-MEL-5 melanoma
UACC-62 melanoma = system: UACC-62 melanoma
NCI-H226 lung = system: NCI-H226 lung
786-0 renal = system: 786-0 renal
A549 NSCLC = system: A549 NSCLC
SF-295 CNS = system: SF-295 CNS
NCI/ADR-RES ovarian = system: NCI/ADR-RES ovarian
A498 renal = system: A498 renal
SK-OV-3 ovarian = system: SK-OV-3 ovarian
SR leukemia = system: SR leukemia
HT29 colon = system: HT29 colon
CAKI-1 renal = system: CAKI-1 renal
MALME-3M melanoma = system: MALME-3M melanoma
K-562 leukemia = system: K-562 leukemia
PC-3 prostate = system: PC-3 prostate
RPMI-8226 leukemia = system: RPMI-8226 leukemia
SF-268 CNS = system: SF-268 CNS
RXF 393 renal = system: RXF 393 renal
DU-145 prostate = system: DU-145 prostate
MOLT-4 leukemia = system: MOLT-4 leukemia
OVCAR-5 ovarian = system: OVCAR-5 ovarian
HS 578T breast = system: HS 578T breast
HOP-62 NSCLC = system: HOP-62 NSCLC
HL-60(TB) leukemia = system: HL-60(TB) leukemia
M14 melanoma = system: M14 melanoma
ACHN renal = system: ACHN renal
LOX IMVI melanoma = system: LOX IMVI melanoma
UO-31 renal = system: UO-31 renal
MDA-N = system: MDA-N
IGROV1 ovarian = system: IGROV1 ovarian
UACC-257 melanoma = system: UACC-257 melanoma
OVCAR-8 ovarian = system: OVCAR-8 ovarian
SNB-19 CNS = system: SNB-19 CNS
BT-549 breast = system: BT-549 breast
NCI-H522 lung = system: NCI-H522 lung
U251 CNS = system: U251 CNS
COLO 205 colon = system: COLO 205 colon
KM12 colon = system: KM12 colon
SW-620 colon = system: SW-620 colon
SN12C renal = system: SN12C renal
MDA-MB-435 = system: MDA-MB-435
NCI-H460 lung = system: NCI-H460 lung
T-47D breast = system: T-47D breast
MDA-MB-231 breast = system: MDA-MB-231 breast
SNB-75 CNS = system: SNB-75 CNS
HOP-92 NSCLC = system: HOP-92 NSCLC
OVCAR-3 ovarian = system: OVCAR-3 ovarian
OVCAR-4 ovarian = system: OVCAR-4 ovarian
CCRF-CEM leukemia = system: CCRF-CEM leukemia
SK-MEL-28 melanoma = system: SK-MEL-28 melanoma
HCC-2998 colon = system: HCC-2998 colon
HCT-15 colon = system: HCT-15 colon
EKVX NSCLC = system: EKVX NSCLC
HCT-116 colon = system: HCT-116 colon
SF-539 CNS = system: SF-539 CNS
TK-10 renal = system: TK-10 renal

## O=C1OC(C2OC(=O)c3cc(O)c(O)c(O)c3-c3c(O)c(O)c4oc(=O)c5c(c(O)c(O)c6oc(=O)c3c4c65)-c3c(cc(O)c(O)c3O)C(=O)OCC2O)C2OC(=O)c3c(c(O)c(O)c(O)c3[C@H]2O)-c2c1cc(O)c(O)c2O (stereo partly specified)
MCF7 breast
  TGI: 21.5 µM
NCI-H23 lung
  TGI: 41.2 µM
SK-MEL-2 melanoma
  TGI: > 100 µM
SK-MEL-5 melanoma
  TGI: 33.9 µM
UACC-62 melanoma
  TGI: 56.5 µM
NCI-H226 lung
  TGI: 44.2 µM
786-0 renal
  TGI: 44.9 µM
A549 NSCLC
  TGI: > 100 µM
SF-295 CNS
  TGI: 68.5 µM
NCI/ADR-RES ovarian
  TGI: 73.5 µM
A498 renal
  TGI: > 100 µM
SK-OV-3 ovarian
  TGI: > 100 µM
SR leukemia
  TGI: 43.4 µM
HT29 colon
  TGI: 31.6 µM
CAKI-1 renal
  TGI: 22.4 µM
MALME-3M melanoma
  TGI: > 100 µM
K-562 leukemia
  TGI: 42.5 µM
PC-3 prostate
  TGI: > 100 µM
RPMI-8226 leukemia
  TGI: 76.9 µM
SF-268 CNS
  TGI: 78.5 µM
RXF 393 renal
  TGI: 73.5 µM
DU-145 prostate
  TGI: > 100 µM
MOLT-4 leukemia
  TGI: 65.3 µM
OVCAR-5 ovarian
  TGI: 47.3 µM
HS 578T breast
  TGI: > 100 µM
HOP-62 NSCLC
  TGI: > 100 µM
HL-60(TB) leukemia
  TGI: 38.8 µM
M14 melanoma
  TGI: 39.5 µM
ACHN renal
  TGI: 80.3 µM
LOX IMVI melanoma
  TGI: 35.5 µM
UO-31 renal
  TGI: 81.9 µM
MDA-N
  TGI: 53.8 µM
IGROV1 ovarian
  TGI: > 100 µM
UACC-257 melanoma
  TGI: > 100 µM
OVCAR-8 ovarian
  TGI: 47.7 µM
SNB-19 CNS
  TGI: > 100 µM
BT-549 breast
  TGI: > 100 µM
NCI-H522 lung
  TGI: 44.5 µM
U251 CNS
  TGI: 57.6 µM
COLO 205 colon
  TGI: 36.6 µM
KM12 colon
  TGI: 63 µM
SW-620 colon
  TGI: 48.9 µM
SN12C renal
  TGI: 36.4 µM
MDA-MB-435
  TGI: 42.3 µM
NCI-H460 lung
  TGI: > 100 µM
T-47D breast
  TGI: 80.1 µM
MDA-MB-231 breast
  TGI: 33.7 µM
SNB-75 CNS
  TGI: 63.7 µM
HOP-92 NSCLC
  TGI: 87.1 µM
OVCAR-3 ovarian
  TGI: 67.5 µM
OVCAR-4 ovarian
  TGI: 46 µM
CCRF-CEM leukemia
  TGI: 37.6 µM
SK-MEL-28 melanoma
  TGI: > 100 µM
HCC-2998 colon
  TGI: > 100 µM
HCT-15 colon
  TGI: 33.3 µM
EKVX NSCLC
  TGI: 41 µM
HCT-116 colon
  TGI: 38.8 µM

## COc1ccc(CCC(=O)OC(C)[C@H](NC(=O)[C@@H](CC(C)C)N(C)C(=O)[C@@H]2CCCN2C(=O)C(C)O)C(=O)OCc2ccccc2)cc1 (stereo partly specified) (H-[ξLac]P[dNMeL][Thr(3ξ)](Propanoyl(3-(4-MeO-Ph)))-OBn)
MCF7 breast
  TGI: > 100 µM
NCI-H23 lung
  TGI: > 100 µM
SK-MEL-2 melanoma
  TGI: 36.9 µM
SK-MEL-5 melanoma
  TGI: 28.8 µM
UACC-62 melanoma
  TGI: 37.9 µM
NCI-H226 lung
  TGI: 98.3 µM
786-0 renal
  TGI: > 100 µM
A549 NSCLC
  TGI: > 100 µM
SF-295 CNS
  TGI: > 100 µM
NCI/ADR-RES ovarian
  TGI: > 100 µM
A498 renal
  TGI: > 100 µM
SK-OV-3 ovarian
  TGI: > 100 µM
SR leukemia
  TGI: > 100 µM
HT29 colon
  TGI: > 100 µM
CAKI-1 renal
  TGI: > 100 µM
SF-539 CNS
  TGI: 46.2 µM
MALME-3M melanoma
  TGI: 45.4 µM
K-562 leukemia
  TGI: 74.5 µM
PC-3 prostate
  TGI: > 100 µM
RPMI-8226 leukemia
  TGI: 80.6 µM
SF-268 CNS
  TGI: 99.5 µM
RXF 393 renal
  TGI: 44.7 µM
DU-145 prostate
  TGI: > 100 µM
MOLT-4 leukemia
  TGI: 63 µM
OVCAR-5 ovarian
  TGI: > 100 µM
HS 578T breast
  TGI: 27.8 µM
HOP-62 NSCLC
  TGI: > 100 µM
HL-60(TB) leukemia
  TGI: 72.6 µM
M14 melanoma
  TGI: 30.6 µM
ACHN renal
  TGI: > 100 µM
LOX IMVI melanoma
  TGI: 41.4 µM
UO-31 renal
  TGI: > 100 µM
MDA-N
  TGI: > 100 µM
IGROV1 ovarian
  TGI: 91.9 µM
UACC-257 melanoma
  TGI: 35.6 µM
OVCAR-8 ovarian
  TGI: > 100 µM
SNB-19 CNS
  TGI: > 100 µM
BT-549 breast
  TGI: > 100 µM
NCI-H522 lung
  TGI: 50.4 µM
U251 CNS
  TGI: > 100 µM
COLO 205 colon
  TGI: 39 µM
KM12 colon
  TGI: 79.4 µM
SW-620 colon
  TGI: > 100 µM
SN12C renal
  TGI: > 100 µM
MDA-MB-435
  TGI: 44.7 µM
NCI-H460 lung
  TGI: > 100 µM
T-47D breast
  TGI: 74.5 µM
MDA-MB-231 breast
  TGI: 46.5 µM
SNB-75 CNS
  TGI: 45.7 µM
HOP-92 NSCLC
  TGI: 41.6 µM
OVCAR-3 ovarian
  TGI: 73.4 µM
OVCAR-4 ovarian
  TGI: > 100 µM
TK-10 renal
  TGI: > 100 µM
CCRF-CEM leukemia
  TGI: 68.9 µM
SK-MEL-28 melanoma
  TGI: 32.9 µM
HCC-2998 colon
  TGI: > 100 µM
HCT-15 colon
  TGI: > 100 µM
EKVX NSCLC
  TGI: > 100 µM
HCT-116 colon
  TGI: > 100 µM

## CCOC(=O)C1(C(=O)OCC)CC(=O)[C@@]2(C1)OCC[C@H]1OC(=O)C[C@H]12
MCF7 breast
  TGI: > 100 µM
NCI-H23 lung
  TGI: > 100 µM
SK-MEL-2 melanoma
  TGI: > 100 µM
SK-MEL-5 melanoma
  TGI: > 100 µM
UACC-62 melanoma
  TGI: > 100 µM
786-0 renal
  TGI: > 100 µM
A549 NSCLC
  TGI: > 100 µM
SF-295 CNS
  TGI: > 100 µM
NCI/ADR-RES ovarian
  TGI: > 100 µM
A498 renal
  TGI: > 100 µM
SR leukemia
  TGI: > 100 µM
HT29 colon
  TGI: > 100 µM
CAKI-1 renal
  TGI: > 100 µM
SF-539 CNS
  TGI: > 100 µM
MALME-3M melanoma
  TGI: > 100 µM
PC-3 prostate
  TGI: > 100 µM
RPMI-8226 leukemia
  TGI: > 100 µM
SF-268 CNS
  TGI: > 100 µM
DU-145 prostate
  TGI: > 100 µM
MOLT-4 leukemia
  TGI: > 100 µM
OVCAR-5 ovarian
  TGI: > 100 µM
HS 578T breast
  TGI: > 100 µM
HOP-62 NSCLC
  TGI: > 100 µM
HL-60(TB) leukemia
  TGI: > 100 µM
M14 melanoma
  TGI: > 100 µM
ACHN renal
  TGI: > 100 µM
LOX IMVI melanoma
  TGI: > 100 µM
UO-31 renal
  TGI: > 100 µM
MDA-N
  TGI: > 100 µM
IGROV1 ovarian
  TGI: > 100 µM
UACC-257 melanoma
  TGI: > 100 µM
OVCAR-8 ovarian
  TGI: > 100 µM
SNB-19 CNS
  TGI: > 100 µM
BT-549 breast
  TGI: > 100 µM
NCI-H522 lung
  TGI: > 100 µM
U251 CNS
  TGI: > 100 µM
COLO 205 colon
  TGI: > 100 µM
KM12 colon
  TGI: > 100 µM
SW-620 colon
  TGI: > 100 µM
SN12C renal
  TGI: > 100 µM
MDA-MB-435
  TGI: > 100 µM
NCI-H460 lung
  TGI: > 100 µM
T-47D breast
  TGI: > 100 µM
MDA-MB-231 breast
  TGI: > 100 µM
SNB-75 CNS
  TGI: > 100 µM
HOP-92 NSCLC
  TGI: > 100 µM
OVCAR-3 ovarian
  TGI: > 100 µM
OVCAR-4 ovarian
  TGI: > 100 µM
TK-10 renal
  TGI: > 100 µM
CCRF-CEM leukemia
  TGI: > 100 µM
SK-MEL-28 melanoma
  TGI: > 100 µM
HCC-2998 colon
  TGI: > 100 µM
HCT-15 colon
  TGI: > 100 µM
EKVX NSCLC
  TGI: > 100 µM
HCT-116 colon
  TGI: > 100 µM
